The record followed here is patent US6432949B1, “Amide derivatives useful as inhibitors of the production of cytokines” (AstraZeneca AB, priority 1998, dated 2002).

In one experiment the target is T1, p38α (Homo sapiens, UniProt Q16539).
T1 construct: c-myc (N); 6His (N); made in house; host or cells: E. coli (PET vectors)
The experiment is described as follows: In vitro enzyme assay, p38α isoform. It is filed as biochemical. Particulars: read-out: IC50 against p38α. The procedure:
The ability of compounds of the invention to inhibit the enzyme p38 kinase was assessed. Activity of test compounds against each of the p38α and […] isoforms of the enzyme was determined.
Human recombinant MKK6 (GenBank Accesion Number G1209672) was isolated from Image clone 45578 (Genomics 1996, 33, 151) and utilised to produce protein in the form of a GST fusion protein in a pGEX vector using analogous procedures to those disclosed by J. Han et al., Journal of Biological Chemistry, 1996, 271, 2886-2891. p38α (GenBank Accession Number G529039) and p38β (GenBank Accession Number G1469305) were isolated by PCR amplification of human lymphoblastoid cDNA (GenBank Accession Number GM1416) and human foetal brain cDNA [synthesised from mRNA (Clontech, catalogue no. 6525-1) using a Gibco superscript cDNA synthesis kit] respectively using oligonucleotides designed for the 5′ and 3′ ends of the human p388α and p38β genes using analogous procedures to those described by J. Han et al., Biochimica et Biolphysica Acta, 1995, 1265, 224-227 and Y. Jiang et al., Journal of Biological Chemistry, 1996, 271, 17920-17926.
Both p38 protein isoforms were expressed in e coli in PET vectors. Human recombinant p38α and p38β isoforms were produced as 5′ c-myc, 6His tagged proteins. Both MKK6 and the p38 proteins were purified using standard protocols: the GST MKK6 was purified using a glutathione sepharose column and the p38 proteins were purified using nickel chelate columns.
The p38 enzymes were activated prior to use by incubation with MKK6 for 3 hours at 30° C. The unactivated coli-expressed MKK6 retained sufficient activity to fully activate both isoforns of p38. The activation incubate comprised p38α (10 μl of 10 mg/ml) or p38β (10 μl of 5 mg/ml) together with MKK6 (10 μl of 1 mg/ml), ‘Kinase buffer’ [100 μl; pH 7.4 buffer comprising Tris (50 mM), EGTA (0.1 mM), sodium orthovanadate (0.1 mM) and β-mercaptoethanol (0.1%)] and MgATP (30 μl of 50 mM Mg(OCOCH3)2 and 0.5 mM ATP). This produced enough activated p38 enzyme for 3 Microtiter plates.
Test compounds were solubilised in DMSO and 10 μl of a 1:10 diluted sample in ‘Kinase Buffer’ was added to a well in a Microtiter plate. For single dose testing, the compounds were tested at 10 μM. ‘Kinase Assay Mix’ [30 μl; comprising Myelin Basic Protein (Gibco BRL cat. no. 1322B-010; 1 ml of a 3.33 mg/ml solution in water), activated p38 enzyme (50 μl) and ‘Kinase Buffer’ (2 ml)] was then added followed by ‘Labelled ATP’ [10 μl; comprising 50 μM ATP, 0.1 μCi ^33P ATP (Amersham International cat. no. BF1000) and 50 mM Mg(OCOCH3)2]. The plates were incubated at room temperature with gentle agitation. Plates containing p38α were incubated for 90 min and plates containing p38β were incubated for 45 min. Incubation was stopped by the addition of 50 μl of 20% trichloroacetic acid (TCA). The precipitated protein was phosphorylated by p38 kinase and test compounds were assessed for their ability to inhibit this phosphorylation. The plates were filtered using a Canberra Packard Unifilter and washed with 2% TCA, dried overnight and counted on a Top Count scintillation counter.
Test compounds were tested initially at a single dose and active compounds were retested to allow IC50 values to be determined.

Experiment [1] has as its system TNFα production. The experiment is described as follows: Human Whole Blood (HWB) test: TNFα production by LPS-stimulated human whole blood. It is filed as cell-based. The procedure:
The ability of the compounds of this invention to inhibit TNFα production was also assessed in a human whole blood assay. Human whole blood secretes TNFα when stimulated with LPS. This property of blood forms the basis of an assay which is used as a secondary test for compounds which profile as active in the PBMC test.
Heparinised (10 units/ml) human blood was obtained from volunteers. 160 μl whole blood were added to 96 well round-bottom plates (Corning 25850). Compounds were solubilised and serially diluted in RPMI 1640 medium (Gibco) supplemented with 50 units/ml penicillin, 50 μg/ml streptomycin and 2 mM glutamine, as detailed above. 20 μl of each test concentration was added to appropriate wells (triplicate cultures). 20 μl of RPMI 1640 medium supplemented with antibiotics and glutamine was added to control wells. Plates were incubated for 30 minutes at 37° C. (humidified incubator), prior to addition of 2011 LPS (final concentration 10 μg/ml). RPMI 1640 medium was added to control wells. Six “LPS alone” and four “medium alone” controls were included on each plate. A known TNFα synthesis/secretion inhibitor was included in each test. Plates were incubated for 6 hours at 37° C. (humidified incubator). […] TNFα levels were measured by ELISA (see WO92/10190 and Current Protocols in Molecular Biology, vol 2 by Frederick M. Ausbel et al., John Wiley and Sons Inc.). […]

The test system of experiment [2] is TNFα production. The experiment is described as follows: PBMC test: TNFα production by LPS-stimulated human peripheral blood mononuclear cells. It is filed as cell-based. As for the experimental part:
The ability of compounds of this invention to inhibit TNFα production was assessed by using human peripheral blood mononuclear cells which synthesise and secrete TNFα when stimulated with lipopolysaccharide.
Peripheral blood mononuclear cells (PBMC) were isolated from heparinised (10 units/ml heparin) human blood by density centrifugation (Lymphoprep™; Nycomed). Mononuclear cells were resuspended in culture medium [RPMI 1640 medium (Gibco) supplemented with 50 units/ml penicillin, 50 μg/ml streptomycin, 2 mM glutamine and 1% heat-inactivated human AB serum (Sigma H-1 513)]. Compounds were solubilised in DMSO at a concentration of 50 mM, diluted 1:100 in culture medium and subsequently serial dilutions were made in culture medium containing 1% DMSO. PBMCs (2.4×10^5 cells in 160 μl culture medium) were incubated with 20 μl of varying concentrations of test compound (triplicate cultures) or 20 μl culture medium containing 1% DMSO (control wells) for 30 minutes at 37° C. in a humidified (5%CO2/95% air) incubator (Falcon 3072; 96 well flat-bottom tissue culture plates). 20 μl lipopolysaccharide [LPS E.Coli 0111:B4 (Sigma L4130), final concentration 10 μg/ml] solubilised in culture medium was added to appropriate wells. 20 μl culture medium was added to “medium alone” control wells. Six “LPS alone” and four “medium alone” controls were included on each 96 well plate. Varying concentrations of a known TNFα inhibitor were included in each test, i.e. an inhibitor of the PDE Type IV enzyme (for example see Semmler, J. Wachtel. H. and Endres, S., Int. J. Immunopharmac. (1993), 15(3), 409-413) or an inhibitor of proTNFα convertase (for example, see McGeehan, G. M. et al. Nature (1994) 370, 558-561). Plates were incubated for 7 hours at 37° C. (humidified incubator) after which 100 μl of the supernatant was removed from each well and stored at −70° C. (96 well round-bottom plates; Corning 25850). TNFα levels were determined in each sample using a human TNFα ELISA (see WO92/10190 and Current Protocols in Molecular Biology, vol 2 by Frederick M. Ausbel et al., John Wiley and Sons Inc.).
% inhibition=(LPS alone−medium alone)−(test concentration−medium alone)×100(LPS alone−medium alone)

T1 sequence (Q16539 whole entry): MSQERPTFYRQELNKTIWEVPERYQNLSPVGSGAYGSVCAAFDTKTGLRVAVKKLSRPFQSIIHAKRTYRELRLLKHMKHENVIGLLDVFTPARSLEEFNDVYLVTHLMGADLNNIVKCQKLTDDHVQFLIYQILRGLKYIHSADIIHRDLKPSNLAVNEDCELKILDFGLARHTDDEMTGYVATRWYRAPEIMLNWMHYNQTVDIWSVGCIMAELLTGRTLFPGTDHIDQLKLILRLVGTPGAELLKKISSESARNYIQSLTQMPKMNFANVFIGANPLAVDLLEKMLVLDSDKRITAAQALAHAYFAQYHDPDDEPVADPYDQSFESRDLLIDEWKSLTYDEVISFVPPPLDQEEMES

`Cc1ccc(NC(=O)c2ccnc(N3CCOCC3)c2)cc1NC(=O)c1ccc(NCCCN(C)C)nc1` [Example 22(14), 6-(3-dimethylaminopropylamino)-N-[2-methyl-5-(2-morpholinopyrid-4-ylcarbonylamino)phenyl]pyridine-3-carboxamide]: the values for the 50% inhibitory concentration (IC50) at p38α and with TNFα production [1] were about 50 nM and about 3000 nM, respectively.

As for “N-[5-(5-isoxazolylcarbonylamino)2-methylphenyl]quinoline-6-carboxamide [Example 14]”, the half-maximal inhibitory concentration (IC50) was about 100 nM on p38α and about 3000 nM in the experiment with TNFα production [2].

Regarding `Cc1ccc(NC(=O)c2cccc(N(C)C)c2)cc1NC(=O)c1ccc(Cl)nc1` [Example 1, 6-chloro-N-[5-(3-dimethylaminobenzamido)-2-methylphenyl]pyridine-3-carboxamide], the IC50 at p38α is about 1000 nM; with TNFα production [2] (Homo sapiens, PBMC) it was about 9000 nM.

With `Cc1ccc(NC(=O)c2cccc(N(C)C)c2)cc1NC(=O)c1ccc2ncsc2c1` [Example 8, Compound No. 2, N-[5-(3dimethylaminobenzamido)-2-methylphenyl]benzothiazole-6-carboxamide], the IC50 at p38α was about 100 nM; with TNFα production [2] (Homo sapiens, PBMC), about 5000 nM.

On to `Cc1ccc(NC(=O)c2ccnc(N3CCOCC3)c2)cc1NC(=O)c1ccc(NCCC2CCCN2C)nc1` (stereo not shown) [Example 22(18), 6-[2-(1-methylpyrrolidin-2-yl)ethylamino]-N-[2-methyl-5(2-morpholinopyrid-4-ylcarbonylamino)phenyl]pyridine-3-carboxamide], for which the IC50 on p38α is about 50 nM; in the experiment on TNFα production [1], about 2000 nM; with TNFα production [2] (Homo sapiens, PBMC), about 300 nM.

`N#Cc1ccc(C(=O)Nc2ccc(Cl)c(NC(=O)c3ccc4ncccc4c3)c2)cc1` [Example 10, N-[2-chloro-5-(4-cyanobenzamido)phenyl]quinoline6-carboxamide]: the concentration for half-maximal inhibition (IC50) on p38α was about 50 nM; in the experiment with TNFα production [2] (Homo sapiens, PBMC), about 2000 nM.

What is called IC50 is the concentration at which inhibition is half-maximal.
